Measured values taken from patent US6939303B2, “Method and system of determining cardiac contractility” (Provecto Tecnico R-2000, Ca, priority 1999, dated 2005).
“And” between values parts separate entries of the source, which are not always exact repeats. Identical values can stand only once. Like-named read-outs stand apart in the source and are kept apart here.

Legend:
[1] = system: patients, most of them with coronary artery disease; assay: Cardiac contractility under load or inotropic drugs, data of Takeuchi et al. (Examples 1 and 3); type: in vivo, human; design: key to C, cardiac contractility calculated with the method of this invention: relative contractility scale; control state C = 100; settings: for Alteration in cardiac contractility, method of this invention: change vs control
Protocol: (§1) The capability of the method of the present invention to assess cardiac contractility was evaluated using data from several experiments published in the literature and suitable for analysis. In this approach, afterload in the method was expressed as systolic pressure. Since different methodologies to measure cardiac contractility were used, the comparison between them was attained by analyzing the amount of changes (delta values) and were statistically treated using paired t test, ANOVA, correlation, and agreement between methods when applicable, as, for example, described in Lancet, Vol. 1, pages 307 to 310 (1986) by Bland et al.
Hemodynamic data was utilized from Takeuchi et al. (“Single-Beat Estimation of the Slope of the End-Systolic Pressure-Volume Relation in the Human Left Ventricle”. Circulation, Vol. 83, pages 202 to 212 (1991)).
Initially, to calibrate the model of the method of this invention, the average normal (or control state) values were used: • Preload (end-diastolic volume)=70 (Pre_adj) • Afterload (Systolic pressure)=109 (After_adj) • Stroke volume (SV)=40 (SV_adj) • Cardiac contractility (C)=100 (C_adj) Thereafter, the C value in each case during angiotension infusion was calculated using its corresponding value of preload, afterload and stroke volume. For instance, for the first case receiving angiotenison, where:
The first step was to obtain the edge value for the tetrahedron for the control state using the standard mathematical equation for the volume of a tetrahedron: Edge=^3{overscore (6*sv—adj)} Therefore, for the control state, Edge=^3{overscore (6*40)}=6.214465 The next step was to obtain the unitary (u) values of preload (pre_u) and afterload (after_u).
Pre—u=68*(6.214465/70)=6.036908 [formula] In order to obtain the unitary (u) value of C, using the equation derived herein for cardiac contractility [formula] Therefore, the value of C (C_v) for Case 1 is: [formula] Thus, during angiotensin treatment, the corresponding C values for Cases 1 to 8 were calculated using the method of this invention to be as follows: […]
Cardiovascular data was utilized from “Single-beat Estimation of the Slope of the End-Systolic Pressure-Volume Relation in the Human Left Ventricle,” Circulation, Vol. 83, pages 202 to 212 (1991) by Takeuchi et al. This study involved 25 patients, most of them with coronary artery disease. […] Hemodynamic modifications were measured with high-fidelity micromanometer and ventriculography. […] The increase in cardiac contractility using dobutamine induced changes measured by the method of this invention was 23% in comparison to the measurements made with ejection fraction of 15% and with ESP/ESV of 32%.

[2] = system: patients, most of them with coronary artery disease; design: After_v, afterload (systolic pressure): unit not given beside the values; settings: cited from earlier work; for Alteration in cardiac contractility, ESP/ESV / Alteration in cardiac contractility, ejection fraction: change vs control
[3] = system: patients with hyperthyroidism; assay: Cardiac contractility with propranolol, data of Merillon et al. (Example 8); type: in vivo, human; settings: administration of propranolol
Protocol: as §1
Cardiovascular data was utilized from “Left Ventricular Function and Hyperthyroidism,” Br. Heart J., Vol. 46, pages 137 to 143 (1981) by Merillon et al. In patients with hyperthyroidism and invasive assessment of ventricular function, the administration of propranolol produced a fall in cardiac contractility. This change was similar when the inotropic state was assessed by means of P/V ratio (−28%), ejection fraction (−19%), dP/dt (−20%), and dP/dt/TP (−19%). Use of the method of the present invention gave a value for the change in cardiac contractility of −17%.

[4] = system: patients with hyperthyroidism; settings: administration of propranolol; cited from earlier work
[5] = system: Conscious Dog; settings: cited from earlier work; for Vcf Avg. Value (velocity of shortening) / dP/dT Avg. Value: Example 13, animals; for Change, Vcf / Change, dP/dt / Change, dP/dt DP40: conscious dog
[6] = system: Conscious Dog; assay: Changes in preload, afterload and inotropic state, data of Mahler et al. (Example 13); type: in vivo; settings: for Method of This Invention Avg. Value: Example 13, animals, control 100.0; for Change, method of the present invention: conscious dog
Protocol: as §1
Cardiovascular data was utilized from “Effects of Changes in Preload, Afterload and Inotropic State on Ejection and Isovolumic Phase Measures of Contractility in the Conscious Dog,” Am. J. Cardiol., Vol. 35, pages 623 to 634 (1975) by Mahler et al. In this study, increase in preload was attained by Ringer's solution infusion, and rise of blood pressure with phenylephrine administration. […] The method of this invention was less sensitive than the other indices to measure changes in the inotropic state induced with isoproterenol or propranolol.

[7] = system: Conscious Dogs; settings: cited from earlier work; for ESP/ESV Avg. Value / EF Avg. Value: Example 12, animals; for EF Avg. Value: ejection fraction; for Change in contractile state, ESP/ESV / Change in contractile state, dP/dt / Change in contractile state, ejection fraction: dogs
[8] = system: Conscious Dogs; assay: Contractile state with dobutamine and verapamil, data of Little et al. (Example 12); type: in vivo, dog; settings: for Method of This Invention Avg. Value: Example 12, animals, control 100.0; for Change in contractile state, method of this invention: dogs
Protocol: as §1
Cardiovascular data was utilized from “Response of the Left Ventricular End-Systolic Pressure-Volume Relation in Conscious Dogs to a Wide Range of Contractile States,” Circulation, Vol. 78, pages 736 to 745 (1988) by Little et al. In this study, the contractile state was increased by dobutamine and decreased by verapamil.

[9] = system: normal subjects; settings: ten normal subjects; cited from earlier work
[10] = system: normal subjects; assay: Cardiac contractility with methoxamine and dobutamine, echocardiographic data of Borow et al. (Example 4); type: in vivo, human; settings: ten normal subjects
Protocol: as §1
Cardiovascular data was utilized from “Sensitivity of End-Systolic Pressure-Dimension and Pressure-Volume Relations to the Inotropic State in Humans,” Circulation, Vol. 65, pages 988 to 997 (1982) by Borow et al. Ten normal subjects were studied echocardiographically.

[11] = system: patients with coronary artery disease; settings: load modifications; cited from earlier work
[12] = system: patients with coronary artery disease; assay: Cardiac contractility with methoxamine and nitrates, data of Mehmel et al. (Example 6); type: in vivo, human; settings: load modifications
Protocol: as §1
Cardiovascular data was utilized from “The Linearity of the End-Systolic Pressure-Volume Relationship in Man and its Sensitivity for Assessment of Left Ventricular Function,” Circulation, Vol. 63, pages 1216 to 1222 (1981) by Mehmel et al. This study was performed in patients with coronary artery disease and with catheter-tip manometer and ventricular angiogram measurements.

[13] = system: normal subjects and patients with coronary artery disease; settings: cited from earlier work
[14] = system: normal subjects and patients with coronary artery disease; assay: Cardiac contractility with phenylephrine, data of El-Tobgi et al. (Example 5); type: in vivo, human
Protocol: as §1
Cardiovascular data was utilized from “Left Ventricular Function in Coronary Artery Disease,” J. Am. Coll. Cardiol., Vol. 3, pages 781 to 788 (1984) by El-Tobgi et al. In this study, normal subjects (group I) were compared with two groups of patients with coronary artery disease (groups II and III, the last one with ventricular dysfunction) and studied with tip-manometer catheter and ventriculography measurements. In basal conditions, the method of this invention behaves similar to the ejection fraction in detecting depression in cardiac contractility in group III (−17.2% and −18.0%, respectively).

[15] = group I (normal subjects), increase in blood pressure with phenylephrine
[16] = group III (coronary artery disease with ventricular dysfunction), with the increase in blood pressure

## angiotensin
[1]
  Alteration in cardiac contractility, method of this invention: 0.4%
[1]; individual cases 1 to 8 during angiotensin treatment, one line per case, control state C=100
  C, cardiac contractility calculated with the method of this invention: 115.24 and 63.33 and 95.99 and 88.76 and 100.71 and 116.54 and 73.04 and 117.72
[2]
  Alteration in cardiac contractility, ESP/ESV: 9.1%
  Alteration in cardiac contractility, ejection fraction: −10.3%
[2]; individual cases 1 to 8 receiving angiotensin, one line per case, control mean 40
  SV_v, stroke volume: 41 and 38 and 30 and 34 and 40 and 50 and 36 and 60
[2]; individual cases 1 to 8 receiving angiotensin, one line per case, control mean 70
  Pre_v, preload (end-diastolic volume): 68 and 119 and 66 and 78 and 79 and 82 and 95 and 93
[2]; individual cases 1 to 8 receiving angiotensin, one line per case, control mean 109
  After_v, afterload (systolic pressure): 142 (2×) and 155 and 176 and 164 and 156 and 145 and 125

## CC(C)NCC(O)COc1cccc2ccccc12 (stereo not drawn) [Propranolol, propranolol]
[3]
  Change in cardiac contractility, method of the present invention: −17%
[4]
  Change in inotropic state, ESP/ESV: −32%
  Change in inotropic state, P/V ratio: −28%
  Change in inotropic state, dP/dt: −20%
  Change in inotropic state, dP/dt/TP: −19%
  Change in inotropic state, ejection fraction: −19%
  Change in inotropic state, velocity of shortening: −32%
[5]
  Vcf Avg. Value (velocity of shortening): 1.80 circulation per second
  dP/dT Avg. Value: 3000 mm Hg per second
  Change, Vcf: −18%
  Change, dP/dt: −18%
  Change, dP/dt DP40: −13%
[6]
  Method of This Invention Avg. Value: 95.2
  Change, method of the present invention: −4.8%

## O=[N+]([O-])OCC(CO[N+](=O)[O-])O[N+](=O)[O-] [Nitroglycerin, nitroglycerin]
[1]
  Alteration in cardiac contractility, method of this invention: −4%
[2]
  Alteration in cardiac contractility, ESP/ESV: 9%
  Alteration in cardiac contractility, ejection fraction: 8.3%

## CC(CCc1ccc(O)cc1)NCCc1ccc(O)c(O)c1 (stereo not drawn) [Dobutamine, dobutamine]
[1]
  Alteration in cardiac contractility, method of this invention: 23%
[2]
  Alteration in cardiac contractility, ESP/ESV: 32%
  Alteration in cardiac contractility, ejection fraction: 15%
[7]
  ESP/ESV Avg. Value: 18.5 mm Hg per ml
  EF Avg. Value: 54.8 percentage
  Change in contractile state, ESP/ESV: 150%
  Change in contractile state, dP/dt: 34.1%
  Change in contractile state, ejection fraction: 17.1%
[8]
  Method of This Invention Avg. Value: 111.7
  Change in contractile state, method of this invention: 11.7%
[9]
  Change in cardiac contractility, ESP/ESV: 57.6%
  Change in cardiac contractility, ejection fraction: 12.8%
[10]
  Change in cardiac contractility, method of this invention: 27.5%

## COc1ccc(OC)c(C(O)C(C)N)c1 (stereo not drawn) [Methoxamine, methoxamine]
[9]
  Change in cardiac contractility, ejection fraction: −10.4%
[11]
  Change measured using ejection fraction: −5.0%
[12]
  Change in cardiac contractility, method of this invention: 3.3%
[10]
  Change in cardiac contractility, method of this invention: 1.4%

## CC(C)NCC(O)c1ccc(O)c(O)c1 (stereo not drawn) [Isoproterenol, isoproterenol]
[5]
  Vcf Avg. Value (velocity of shortening): 2.83 circulation per second
  dP/dT Avg. Value: 5430 mm Hg per second
  Change, Vcf: 53%
  Change, dP/dt: 55%
  Change, dP/dt DP40: 56%
[6]
  Method of This Invention Avg. Value: 120.3
  Change, method of the present invention: 20.3%

## COc1ccc(CCN(C)CCCC(C#N)(c2ccc(OC)c(OC)c2)C(C)C)cc1OC (stereo not drawn) [Verapamil, verapamil]
[7]
  ESP/ESV Avg. Value: 5.1 mm Hg per ml
  EF Avg. Value: 39.2 percentage
  Change in contractile state, ESP/ESV: −38.5%
  Change in contractile state, dP/dt: −39.9%
  Change in contractile state, ejection fraction: −10.9%
[8]
  Method of This Invention Avg. Value: 77.1
  Change in contractile state, method of this invention: −23%

## O=[N+]([O-])O [Nitrate]
[11]
  Change measured using ejection fraction: 5.0%
[12]
  Change in cardiac contractility, method of this invention: −1.7%

## CNC[C@H](O)c1cccc(O)c1 [Phenylephrine, phenylephrine]
[13]; Example 5, CAD + VD
  EF Avg. Value: 50.5 percentage
  ESP/ESV Avg. Value: 5.0 mm Hg per ml
[13]; Example 5, CAD
  EF Avg. Value: 64.0 percentage
  ESP/ESV Avg. Value: 9.9 mm Hg per ml
[13]; Example 5, Healthy
  EF Avg. Value: 67.5 percentage
  ESP/ESV Avg. Value: 10.4 mm Hg per ml
[13]; [15]
  Change in ejection fraction: −0.1%
[13]; [16]
  Fall in ESP/ESV: −51.9%
  Fall in ejection fraction: −25.3%
[5]
  Vcf Avg. Value (velocity of shortening): 1.61 circulation per second
  dP/dT Avg. Value: 3670 mm Hg per second
  Change, Vcf: −26%
  Change, dP/dt: −2%
  Change, dP/dt DP40: 2%
[6]
  Method of This Invention Avg. Value: 100.8
  Change, method of the present invention: 0.8%
[14]; Example 5, CAD
  Method of This Invention Avg. Value: 107.3
[14]; Example 5, CAD + VD
  Method of This Invention Avg. Value: 84.2
[14]; Example 5, Healthy
  Method of This Invention Avg. Value: 110.4
[14]; [15]
  Change in cardiac contractility, method of the present invention: 10.4%
[14]; [16]
  Fall in cardiac contractility, method of this invention: −15.8%
